Read-outs that look alike come from different tables or passages of the source. Numbered stars: 1 amine (or outer) side, 2 acyl side, 3 side chain; on linkers, the order of the positions; unused ones are H or OH. Bridge positions count the residues as written; N and C are the ends. Square brackets hold non-standard residues; d marks the D form. Peptide text beside a SMILES is read from it. mXylylene = c1cc(C[*:1])cc(C[*:2])c1; NMeF = CN[C@@H](Cc1ccccc1)C(=O)O; Tic = O=C(O)[C@@H]1Cc2ccccc2CN1
Legend:
[1] = Plasma stability assay, mouse plasma; type: in vitro ADME; settings: mouse, plasma, 37° C., read-out: % intact compound remaining after incubation, Mouse plasma; for remaining at 4 h, 9.8 µM: 4 h incubation
[2] = molecular target: T1, FAP-expressing human WI-38 fibroblasts (Homo sapiens, UniProt Q12884); test: Competitive FACS binding assay; settings: for pIC50 Category (FACS): competition with 3 nM Cy5-labeled compound, 4° C., 1 hour, WI-38 fibroblasts
T1 construct: FAP-expressing human WI-38 fibroblasts (ECACC) were cultured in EMEM; host or cells: WI-38 human fibroblasts
T1 sequence (Q12884 whole entry): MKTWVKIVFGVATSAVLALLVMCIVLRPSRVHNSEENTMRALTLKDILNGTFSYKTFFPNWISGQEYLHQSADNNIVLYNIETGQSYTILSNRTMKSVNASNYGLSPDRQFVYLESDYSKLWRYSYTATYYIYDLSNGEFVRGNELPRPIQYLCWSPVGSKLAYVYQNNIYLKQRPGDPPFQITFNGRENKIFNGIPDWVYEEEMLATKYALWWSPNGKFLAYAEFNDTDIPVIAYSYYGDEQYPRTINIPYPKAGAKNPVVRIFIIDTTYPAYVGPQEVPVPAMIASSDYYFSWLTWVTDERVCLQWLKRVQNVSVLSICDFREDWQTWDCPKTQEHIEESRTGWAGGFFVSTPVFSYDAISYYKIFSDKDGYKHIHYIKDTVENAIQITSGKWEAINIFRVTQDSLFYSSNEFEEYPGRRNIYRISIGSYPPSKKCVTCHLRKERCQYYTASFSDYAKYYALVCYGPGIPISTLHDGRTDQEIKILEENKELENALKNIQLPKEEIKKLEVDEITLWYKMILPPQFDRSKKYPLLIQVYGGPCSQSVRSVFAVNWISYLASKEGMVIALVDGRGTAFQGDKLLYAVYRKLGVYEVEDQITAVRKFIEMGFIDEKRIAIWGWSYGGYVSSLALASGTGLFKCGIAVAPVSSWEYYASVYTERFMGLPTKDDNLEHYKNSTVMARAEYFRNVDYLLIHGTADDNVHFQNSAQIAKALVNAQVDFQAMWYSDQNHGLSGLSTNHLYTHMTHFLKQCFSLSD
Protocol: Cells were analyzed in an Attune NxT flow cytometer. […] […].
Cells were analyzed in an Attune NxT flow cytometer. […]

[3] = molecular target: T2, Human recombinant FAP (Homo sapiens, UniProt Q12884); test: FRET-based FAP protease activity assay; type: biochemical; parameters: purchased R&D systems 3715-SE; settings: for pIC50 Category (activity): FRET-peptide substrate
T2 sequence (Q12884 whole entry): as above

[4] = molecular target: T2, Human recombinant FAP; test: Surface plasmon resonance (Biacore) assay; type: binding; settings: for pKD Category: Biacore, SCK mode, 25° C.
[5] = Radiochemical purity by HPLC of ^99mTc-labeled compounds; type: physicochemical; settings: 99Tc-labeled compounds
Protocol: 100-500 MBq of ^99mTcO4 (in saline) were mixed with 11 μl of 0.5 M phosphate buffer pH 11.5-12.0 and 1.1 μl of 0.1 M trisodium citrate per 100 μl radionuclide solution. […] The mixture was incubated for 30 min at 25-50′° C. At the end of the incubation time, the mixture was neutralized with 3.0 μl 1 M HCl per 10 μl phosphate buffer and TWEEN-20 was added at a final concentration of 0.100.

[6] = system: HEK-FAP tumor; settings: for uptake BPS 1 h / uptake BPS 3 h / uptake BPS 6 h / uptake Tumor 1 h / uptake Tumor 3 h / uptake Tumor 6 h / uptake Kidneys 1 h / uptake Kidneys 3 h / uptake Kidneys 6 h: ^99mTc-labeled, SPECT/CT; for uptake BPS 1 h / uptake BPS 3 h / uptake BPS 6 h: BPS (blood pool surrogate); for uptake BPS 1 h / uptake Tumor 1 h / uptake Kidneys 1 h: 1 h post tracer injection; for uptake BPS 3 h / uptake Tumor 3 h / uptake Kidneys 3 h: 3 h post tracer injection; for uptake BPS 6 h / uptake Tumor 6 h / uptake Kidneys 6 h: 6 h post tracer injection; for uptake Tumor 1 h / uptake Tumor 3 h / uptake Tumor 6 h: HEK-FAP tumor; for uptake in healthy tissues (biodistribution): ^99mTc-labelled, 1-6 h post injection, compared to 3BP-4219 and 3BP-4221
[7] = system: HEK-FAP tumor; settings: ^68Ga-labeled, PET/CT
[8] = in vivo; settings: swiss nude, mouse, iv
[9] = 24 h incubation, 37° C.
[10] = pIC50 Category (Activity), FRET-based FAP protease activity assay, recombinant human FAP, 37° C.
[11] = pIC50 Category (activity), Recombinant human FAP

## CSCC[C@H](NC(C)=O)C(=O)N[C@H]1CSCc2cccc(c2)CSC[C@@H](C(=O)N[C@@H](CC(=O)O)C(=O)N[C@@H](Cc2c[nH]cn2)C(=O)N(C)[C@@H](Cc2ccccc2)C(=O)N[C@@H](CCCNC(=N)N)C(=O)N[C@@H](CC(=O)O)C(N)=O)NC(=O)[C@H](Cc2ccccc2)NC(=O)[C@H](CCC(=O)O)NC(=O)[C@H]([C@@H](C)O)NC(=O)[C@@H]2CCCN2C(=O)[C@@H]2CCCN2C1=O [3BP-3188, Ac-Met-[Cys(3MeBn)-Pro-Pro-Thr-Glu-Phe-Cys]-Asp-His-Nmf-Arg-Asp-NH2] (Ac-MCPPTEFCDH[NMeF]RD-NH2; linker 2-8 via mXylylene)
[1]
  remaining at 4 h, 9.8 µM: 97%
[2]
  IC50: < 10 nM
[3]; [10]
  IC50: < 10 nM

## N4Ac-Ttds-Nle-[Cys-(3MeBn)-Pro-Pro-Thr-Gln-Phe-Cys]-OH [3BP-4219]
[2]
  pIC50 Category (FACS): B (category B for pIC50 values between 7.1 and 8.0)
[4]
  pKD Category: A (Category A stands for pKD values >8.0)
[5]
  HPLC Area % at end of synthesis: 94.8%
[5]; (5.5 h)
  HPLC Area % appr. 4 h post end of synthesis: 93.8%
[6]
  uptake BPS 1 h: 0.21 % ID/g
  uptake BPS 3 h: 0.09 % ID/g
  uptake BPS 6 h: 0.07 % ID/g
  uptake Tumor 1 h: 6.80 % ID/g
  uptake Tumor 3 h: 7.62 % ID/g
  uptake Tumor 6 h: 4.52 % ID/g
  uptake Kidneys 1 h: 1.85 % ID/g
  uptake Kidneys 3 h: 1.84 % ID/g
  uptake Kidneys 6 h: 0.55 % ID/g
[3]; 37° C.
  pIC50 Category (activity): A (pIC50 category A stands for pIC50 values >8.0)

## CCCC[C@H](NC(=O)CCC(=O)NCCCOCCOCCOCCCNC(=O)CCC(C(=O)O)N1CCN(CC(=O)O)CCN(CC(=O)O)CC1)C(=O)N[C@H]1CSCc2cccc(c2)CSCC(C(=O)O)NC(=O)[C@H](Cc2ccccc2)NC(=O)[C@H](CCC(N)=O)NC(=O)[C@H]([C@@H](C)O)NC(=O)[C@@H]2CCCN2C(=O)[C@@H]2CCCN2C1=O (stereo partly drawn) [3BP-4713, NODAGA-Ttds-Nle-[Cys(3MeBn)-Pro-Pro-Thr-Gln-Phe-Cys]-OH]
[2]
  IC50: 10 to 79.4 nM
[7]; BPS (blood pool surrogate), 0.25 h post tracer injection
  uptake BPS 0.25 h: 2.27 % ID/g
[7]; BPS (blood pool surrogate), 1 h post tracer injection
  uptake BPS 1 h: 0.77 % ID/g
[7]; BPS (blood pool surrogate), 3 h post tracer injection
  uptake BPS 3 h: 0.19 % ID/g
[7]; HEK-FAP tumor, 0.25 h post tracer injection
  uptake Tumor 0.25 h: 3.46 % ID/g
[7]; HEK-FAP tumor, 1 h post tracer injection
  uptake Tumor 1 h: 3.90 % ID/g
[7]; HEK-FAP tumor, 3 h post tracer injection
  uptake Tumor 3 h: 3.21 % ID/g
[7]; kidneys, 0.25 h post tracer injection
  uptake Kidneys 0.25 h: 9.05 % ID/g
[7]; kidneys, 1 h post tracer injection
  uptake Kidneys 1 h: 2.50 % ID/g
[7]; kidneys, 3 h post tracer injection
  uptake Kidneys 3 h: 0.82 % ID/g
[3]; [11]
  IC50: 10 to 79.4 nM

## CCCC[C@H](NC(=O)CCC(=O)NCCCOCCOCCOCCCNC(=O)CN1CCN(C(=O)C(CNCCN)CNCCN)CC1)C(=O)N[C@H]1CSCc2cncc(c2)CSC[C@@H](C(=O)NCCC(=O)O)NC(=O)[C@H](Cc2ccccc2)NC(=O)[C@H](CCC(N)=O)NC(=O)[C@H]([C@@H](C)O)NC(=O)[C@@H]2CCCN2C(=O)[C@@H]2CCCN2C1=O [3BP-4961, N4Ac-PPAc-Ttds-Nle-[Cys(3Lut)-Pro-Pro-Thr-Gln-Phe-Cys]-Bal-OH]
[2]
  IC50: < 10 nM
[4]
  Kd: < 10 nM
[5]
  HPLC Area % at end of synthesis: 98.0%
[6]
  uptake in healthy tissues (biodistribution): decreased uptake in healthy tissues over time
[8]; blood pool surrogate (BPS)
  tissue uptake at 1 h: 0.47 %ID/g
  tissue uptake at 3 h: 0.31 %ID/g
  tissue uptake at 6 h: 0.11 %ID/g
[8]; kidneys
  tissue uptake at 1 h: 2.36 %ID/g
  tissue uptake at 3 h: 1.12 %ID/g
  tissue uptake at 6 h: 0.77 %ID/g
[8]; tumor
  tissue uptake at 1 h: 10.5 %ID/g
  tissue uptake at 3 h: 11.4 %ID/g
  tissue uptake at 6 h: 12.3 %ID/g
[3]; [11]
  IC50: < 10 nM

## CCCCCC(=O)N[C@H]1CSCc2cc(cc(CN3CCN(C(=O)CN4CCN(CC(=O)O)CCN(CC(=O)O)CCN(CC(=O)O)CC4)CC3)c2)CSC[C@@H](C(=O)O)NC(=O)[C@H](Cc2ccccc2)NC(=O)[C@H](CCC(N)=O)NC(=O)[C@H]([C@@H](C)O)NC(=O)[C@@H]2CCCN2C(=O)[C@@H]2CCCN2C1=O [3BP-3555, Hex-[Cys(tMeBn(DOTA-PP))-Pro-Pro-Thr-Gln-Phe-Cys]-OH]
[1]; 24 h incubation
  remaining at 24 h, 9.8 µM: 88%
[2]
  IC50: 10 to 79.4 nM
[4]
  Kd: < 10 nM
[3]; [10]
  IC50: < 10 nM

## CCCC[C@H](NC(=O)CCC(=O)NCCCOCCOCCOCCCNC(=O)CN1CCN(CC(=O)O)CCN(CC(=O)O)CCN(CC(=O)O)CC1)C(=O)N[C@H]1CSCc2cccc(c2)CSC[C@@H](C(=O)NCCC(=O)O)NC(=O)[C@H](Cc2ccccc2)NC(=O)[C@H](CCC(N)=O)NC(=O)[C@H]([C@@H](C)O)NC(=O)[C@@H]2CCCN2C(=O)[C@@H]2CCCN2C1=O [3BP-3398, DOTA-Ttds-Nle-[Cys(3MeBn)-Pro-Pro-Thr-Gln-Phe-Cys]-Bal-OH]
[9]
  % intact compound remaining after incubation, Human plasma: 99% (24 h)

## CCCC[C@H](NC(=O)CCC(=O)NCCCOCCOCCOCCCNC(=O)CN1CCN(C(=O)C(CNCCN)CNCCN)CC1)C(=O)N[C@H]1CSCc2cccc(c2)CSCC(C(=O)O)NC(=O)[C@H](Cc2ccccc2)NC(=O)[C@H](CCC(N)=O)NC(=O)[C@H]([C@@H](C)O)NC(=O)[C@@H]2CCCN2C(=O)[C@@H]2CCCN2C1=O (stereo partly drawn) [3BP-4541, N4Ac-PPAc-Ttds-Nle-[Cys(3MeBn)-Pro-Pro-Thr-Gln-Phe-Cys]-OH]
[2]
  IC50: 10 to 79.4 nM
[4]
  Kd: 10 to 79.4 nM
[5]
  HPLC Area % appr. 4 h post end of synthesis: 89.7%
  HPLC Area % at end of synthesis: 95.8%
[6]
  uptake in healthy tissues (biodistribution): decreased uptake in healthy tissues over time
[8]; blood pool surrogate (BPS)
  tissue uptake at 1 h: 0.48 %ID/g
  tissue uptake at 3 h: 0.2 %ID/g
  tissue uptake at 6 h: 0.06 %ID/g
[8]; kidneys
  tissue uptake at 1 h: 4.02 %ID/g
  tissue uptake at 3 h: 2.41 %ID/g
  tissue uptake at 6 h: 1.01 %ID/g
[8]; tumor
  tissue uptake at 1 h: 8.81 %ID/g
  tissue uptake at 3 h: 9.76 %ID/g
  tissue uptake at 6 h: 7.48 %ID/g
[3]; [11]
  IC50: 10 to 79.4 nM

## N4Ac-PEG6-Nle-[Cys-(3MeBn)-Pro-Pro-Thr-Glu-Phe-Cys]-OH [3BP-4221]
[2]
  pIC50 Category (FACS): B (category B for pIC50 values between 7.1 and 8.0)
[4]
  pKD Category: A (Category A stands for pKD values >8.0)
[5]
  HPLC Area % at end of synthesis: 99.0%
[5]; (5.5 h)
  HPLC Area % appr. 4 h post end of synthesis: 97.4%
[6]
  uptake BPS 1 h: 0.54 % ID/g
  uptake BPS 3 h: 0.27 % ID/g
  uptake BPS 6 h: 0.16 % ID/g
  uptake Tumor 1 h: 8.51 % ID/g
  uptake Tumor 3 h: 8.32 % ID/g
  uptake Tumor 6 h: 7.97 % ID/g
  uptake Kidneys 1 h: 4.74 % ID/g
  uptake Kidneys 3 h: 3.73 % ID/g
  uptake Kidneys 6 h: 2.56 % ID/g
[3]; 37° C.
  pIC50 Category (activity): B (category B for pIC50 values between 7.1 and 8.0)

## CSCC[C@@H](NC(C)=O)C(=O)N[C@H]1CSCc2cccc(c2)CSC[C@@H](C(=O)N[C@@H](CC(=O)O)C(=O)N[C@@H](Cc2c[nH]cn2)C(=O)N[C@@H](Cc2ccccc2)C(=O)N[C@@H](CCCNC(=N)N)C(=O)N[C@@H](CC(=O)O)C(N)=O)NC(=O)[C@H](Cc2ccccc2)NC(=O)[C@H](CCC(=O)O)NC(=O)[C@H]([C@@H](C)O)NC(=O)[C@@H]2CCCN2C(=O)[C@@H]2CCCN2C1=O [3BP-3187, Ac-met-[Cys(3MeBn)-Pro-Pro-Thr-Glu-Phe-Cys]-Asp-His-Phe-Arg-Asp-NH2] (Ac-[dM]CPPTEFCDHFRD-NH2; linker 2-8 via mXylylene)
[1]
  remaining at 4 h, 9.8 µM: 100%

## CSCC[C@H](NC(C)=O)C(=O)N[C@H]1CSCc2cccc(c2)CSC[C@@H](C(=O)N[C@@H](CC(=O)O)C(=O)N[C@@H](Cc2c[nH]cn2)C(=O)N2Cc3ccccc3C[C@H]2C(=O)N[C@@H](CCCNC(=N)N)C(=O)N[C@@H](CC(=O)O)C(N)=O)NC(=O)[C@H](Cc2ccccc2)NC(=O)[C@H](CCC(=O)O)NC(=O)[C@H]([C@@H](C)O)NC(=O)[C@@H]2CCCN2C(=O)[C@@H]2CCCN2C1=O [3BP-3189, Ac-Met-[Cys(3MeBn)-Pro-Pro-Thr-Glu-Phe-Cys]-Asp-His-Tic-Arg-Asp-NH2] (Ac-MCPPTEFCDH[Tic]RD-NH2; linker 2-8 via mXylylene)
[1]
  remaining at 4 h, 9.8 µM: 100%
